From patent publication US10894784B2, “Heteroarylbenzimidazole compounds” (BAYER PHARMA AKTIENGESELLSCHAFT, priority 2015, dated 2021)

Target: TBK1 (Homo sapiens (Human), UniProt Q9UHD2)
Test: TBK1 low ATP kinase assay (in vitro assay 1)
Format: biochemical
Conditions: TBK1 low ATP kinase assay IC50, in vitro assay 1

Chain of TBK1 (Q9UHD2 whole entry): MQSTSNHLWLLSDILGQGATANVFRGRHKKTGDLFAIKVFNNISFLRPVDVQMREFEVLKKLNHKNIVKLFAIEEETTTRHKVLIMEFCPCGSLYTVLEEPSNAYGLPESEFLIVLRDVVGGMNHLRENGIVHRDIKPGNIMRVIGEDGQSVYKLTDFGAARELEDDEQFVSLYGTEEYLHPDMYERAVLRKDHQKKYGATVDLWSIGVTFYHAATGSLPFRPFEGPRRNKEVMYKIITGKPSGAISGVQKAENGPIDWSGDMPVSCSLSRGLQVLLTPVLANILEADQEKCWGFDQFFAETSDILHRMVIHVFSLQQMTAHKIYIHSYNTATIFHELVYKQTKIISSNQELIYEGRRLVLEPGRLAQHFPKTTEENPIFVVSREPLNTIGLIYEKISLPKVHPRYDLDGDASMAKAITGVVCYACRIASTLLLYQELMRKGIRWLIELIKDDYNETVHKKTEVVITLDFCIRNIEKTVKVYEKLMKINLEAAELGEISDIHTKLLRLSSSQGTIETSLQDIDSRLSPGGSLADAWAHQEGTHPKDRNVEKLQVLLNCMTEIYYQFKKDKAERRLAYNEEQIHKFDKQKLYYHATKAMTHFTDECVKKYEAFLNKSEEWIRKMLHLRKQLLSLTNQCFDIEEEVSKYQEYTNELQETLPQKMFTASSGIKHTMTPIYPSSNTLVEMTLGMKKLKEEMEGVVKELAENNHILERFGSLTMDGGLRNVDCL

| IC50 [nM] | Compound |
| --- | --- |
| 18 | Cc1cc(-c2ccc3nc(Nc4cc(C(C)N5CCN(C(=O)CC(F)(F)F)CC5)ccn4)[nH]c3c2)ncn1 (single isomer, unassigned) [Example 30.03.01.A, 3,3,3-trifluoro-1-{4-[(1R or 1S)-1-(2-{[6-(6-methylpyrimidin-4-yl)-1H-benzimidazol-2-yl]amino}pyridin-4-yl)ethyl]piperazin-1-yl}propan-1-one] |
| 2.15 | Cc1cc(-c2ccc3nc(Nc4cc(C(C)N5CCN(C(=O)CC(F)(F)F)CC5)ccn4)[nH]c3c2)ncn1 (single isomer, unassigned) [Example 30.03.01.B, 3,3,3-trifluoro-1-{4-[(1S or 1R)-1-(2-{[6-(6-methylpyrimidin-4-yl)-1H-benzimidazol-2-yl]amino}pyridin-4-yl)ethyl]piperazin-1-yl}propan-1-one] |
| 1.96 | CC(C)Oc1cncnc1-c1ccc2nc(Nc3cc(C(C)N4CCN(C(=O)CC(F)(F)F)CC4)ccn3)[nH]c2c1 (single isomer, unassigned) [Example 36.02, 3,3,3-trifluoro-1-(4-{(1R or 1S)-1-[2-({6-[5-(propan-2-yloxy)pyrimidin-4-yl]-1H-benzimidazol-2-yl}amino)pyridin-4-yl]ethyl}piperazin-1-yl)propan-1-one] |

Same assay, conditions: in vitro assay 1, read-out: TBK1 low ATP kinase assay IC50

| Compound | IC50 [nM] |
| --- | --- |
| Cc1nccc(-c2ccc3nc(Nc4cc(C(C)N5CCN(C(=O)C6CC6)CC5)ccn4)[nH]c3c2)n1 (single isomer, unassigned) [Example 24.05.04.A, cyclopropyl{4-[(1R or 1S)-1-(2-{[6-(2-methylpyrimidin-4-yl)-1H-benzimidazol-2-yl]amino}pyridin-4-yl)ethyl]piperazin-1-yl}methanone] | 6.67 |
| Cc1nccc(-c2ccc3nc(Nc4cc(C(C)N5CCN(C(=O)C6CC6)CC5)ccn4)[nH]c3c2)n1 (single isomer, unassigned) [Example 24.05.04.B, cyclopropyl{4-[(1S or 1R)-1-(2-{[6-(2-methylpyrimidin-4-yl)-1H-benzimidazol-2-yl]amino}pyridin-4-yl)ethyl]piperazin-1-yl}methanone] | 33.9 |
| CCOc1nccc(-c2ccc3nc(Nc4cc(C(C)N5CCN(C(=O)CC(F)(F)F)CC5)ccn4)[nH]c3c2)n1 (single isomer, unassigned) [Example 26.03.01.A, 1-{4-[(1R or 1S)-1-(2-{[6-(2-ethoxypyrimidin-4-yl)-1H-benzimidazol-2-yl]amino}pyridin-4-yl)ethyl]piperazin-1-yl}-3,3,3-trifluoropropan-1-one] | 2.98 |
| CCOc1nccc(-c2ccc3nc(Nc4cc(C(C)N5CCN(C(=O)CC(F)(F)F)CC5)ccn4)[nH]c3c2)n1 (single isomer, unassigned) [Example 26.03.01.B, 1-{4-[(1S or 1R)-1-(2-{[6-(2-ethoxypyrimidin-4-yl)-1H-benzimidazol-2-yl]amino}pyridin-4-yl)ethyl]piperazin-1-yl}-3,3,3-trifluoropropan-1-one] | 19.5 |
| CC(c1ccnc(Nc2nc3ccc(-c4cc(C(F)(F)F)ncn4)cc3[nH]2)c1)N1CCN(C(=O)CC(F)(F)F)CC1 (single isomer, unassigned) [Example 29.02.01.A, 3,3,3-trifluoro-1-(4-{(1R or 1S)-1-[2-({6-[6-(trifluoromethyl)pyrimidin-4-yl]-1H-benzimidazol-2-yl}amino)pyridin-4-yl]ethyl}piperazin-1-yl)propan-1-one] | 92.3 |
| CC(c1ccnc(Nc2nc3ccc(-c4cc(C(F)(F)F)ncn4)cc3[nH]2)c1)N1CCN(C(=O)CC(F)(F)F)CC1 (single isomer, unassigned) [Example 29.02.01.B, 3,3,3-trifluoro-1-(4-{(1S or 1R)-1-[2-({6-[6-(trifluoromethyl)pyrimidin-4-yl]-1H-benzimidazol-2-yl}amino)pyridin-4-yl]ethyl}piperazin-1-yl)propan-1-one] | 8.64 |
| Cc1cc(-c2ccc3nc(Nc4cc(C(C)N5CCN(C(=O)C6CCC6)CC5)ccn4)[nH]c3c2)ncn1 (single isomer, unassigned) [Example 30.03.02.A, cyclobutyl{4-[(1R or 1S)-1-(2-{[6-(6-methylpyrimidin-4-yl)-1H-benzimidazol-2-yl]amino}pyridin-4-yl)ethyl]piperazin-1-yl}methanone] | 4.15 |
| Cc1cc(-c2ccc3nc(Nc4cc(C(C)N5CCN(C(=O)C6CCC6)CC5)ccn4)[nH]c3c2)ncn1 (single isomer, unassigned) [Example 30.03.02.B, cyclobutyl{4-[(1S or 1R)-1-(2-{[6-(6-methylpyrimidin-4-yl)-1H-benzimidazol-2-yl]amino}pyridin-4-yl)ethyl]piperazin-1-yl}methanone] | 27.5 |
| Cc1cc(-c2ccc3nc(Nc4cc(C(C)N5CCN(C(=O)C6CC6)CC5)ccn4)[nH]c3c2)ncn1 (single isomer, unassigned) [Example 30.03.03.A, cyclopropyl{4-[(1R or 1S)-1-(2-{[6-(6-methylpyrimidin-4-yl)-1H-benzimidazol-2-yl]amino}pyridin-4-yl)ethyl]piperazin-1-yl}methanone] | 3.06 |
| Cc1cc(-c2ccc3nc(Nc4cc(C(C)N5CCN(C(=O)C6CC6)CC5)ccn4)[nH]c3c2)ncn1 (single isomer, unassigned) [Example 30.03.03.B, cyclopropyl{4-[(1S or 1R)-1-(2-{[6-(6-methylpyrimidin-4-yl)-1H-benzimidazol-2-yl]amino}pyridin-4-yl)ethyl]piperazin-1-yl}methanone] | 14 |
| COc1cc(-c2ccc3nc(Nc4cc(C(C)N5CCN(C(=O)CC(F)(F)F)CC5)ccn4)[nH]c3c2)ncn1 (single isomer, unassigned) [Example 34.03.01.A, 3,3,3-trifluoro-1-{4-[(1R or 1S)-1-(2-{[6-(6-methoxypyrimidin-4-yl)-1H-benzimidazol-2-yl]amino}pyridin-4-yl)ethyl]piperazin-1-yl}propan-1-one] | 12.1 |
| COc1cc(-c2ccc3nc(Nc4cc(C(C)N5CCN(C(=O)CC(F)(F)F)CC5)ccn4)[nH]c3c2)ncn1 (single isomer, unassigned) [Example 34.03.01.B, 3,3,3-trifluoro-1-{4-[(1S or 1R)-1-(2-{[6-(6-methoxypyrimidin-4-yl)-1H-benzimidazol-2-yl]amino}pyridin-4-yl)ethyl]piperazin-1-yl}propan-1-one] | 50.1 |
| COc1cc(-c2ccc3nc(Nc4cc(C(C)N5CCN(C(=O)C6CC6)CC5)ccn4)[nH]c3c2)ncn1 (single isomer, unassigned) [Example 34.03.02.A, cyclopropyl{4-[(1R or 1S)-1-(2-{[6-(6-methoxypyrimidin-4-yl)-1H-benzimidazol-2-yl]amino}pyridin-4-yl)ethyl]piperazin-1-yl}methanone] | 46.4 |
| COc1cc(-c2ccc3nc(Nc4cc(C(C)N5CCN(C(=O)C6CC6)CC5)ccn4)[nH]c3c2)ncn1 (single isomer, unassigned) [Example 34.03.02.B, cyclopropyl{4-[(1S or 1R)-1-(2-{[6-(6-methoxypyrimidin-4-yl)-1H-benzimidazol-2-yl]amino}pyridin-4-yl)ethyl]piperazin-1-yl}methanone] | 7.22 |
| COc1cncnc1-c1ccc2nc(Nc3cc(C(C)N4CCN(C(=O)CC(F)(F)F)CC4)ccn3)[nH]c2c1 (single isomer, unassigned) [Example 35.03.01.A, 3,3,3-trifluoro-1-{4-[(1R or 1S)-1-(2-{[6-(5-methoxypyrimidin-4-yl)-1H-benzimidazol-2-yl]amino}pyridin-4-yl)ethyl]piperazin-1-yl}propan-1-one] | 3.85 |

Results, then the compound that gave them:

| IC50 [nM] | Compound |
| --- | --- |
| 30 | COc1cncnc1-c1ccc2nc(Nc3cc(C(C)N4CCN(C(=O)CC(F)(F)F)CC4)ccn3)[nH]c2c1 (single isomer, unassigned) [Example 35.03.01.B, 3,3,3-trifluoro-1-{4-[(1S or 1R)-1-(2-{[6-(5-methoxypyrimidin-4-yl)-1H-benzimidazol-2-yl]amino}pyridin-4-yl)ethyl]piperazin-1-yl}propan-1-one] |
| 8.33 | COc1cncnc1-c1ccc2nc(Nc3cc(C(C)N4CCN(C(=O)CC5CC5)CC4)ccn3)[nH]c2c1 (single isomer, unassigned) [Example 35.03.02.A, 2-cyclopropyl-1-{4-[(1R or 1S)-1-(2-{[6-(5-methoxypyrimidin-4-yl)-1H-benzimidazol-2-yl]amino}pyridin-4-yl)ethyl]piperazin-1-yl}ethanone] |
| 32.8 | COc1cncnc1-c1ccc2nc(Nc3cc(C(C)N4CCN(C(=O)CC5CC5)CC4)ccn3)[nH]c2c1 (single isomer, unassigned) [Example 35.03.02.B, 2-cyclopropyl-1-{4-[(1S or 1R)-1-(2-{[6-(5-methoxypyrimidin-4-yl)-1H-benzimidazol-2-yl]amino}pyridin-4-yl)ethyl]piperazin-1-yl}ethanone] |
| 5.62 | COc1cncnc1-c1ccc2nc(Nc3cc(C(C)N4CCN(C(=O)C5CC5)CC4)ccn3)[nH]c2c1 (single isomer, unassigned) [Example 35.03.03.A, cyclopropyl{4-[(1R or 1S)-1-(2-{[6-(5-methoxypyrimidin-4-yl)-1H-benzimidazol-2-yl]amino}pyridin-4-yl)ethyl]piperazin-1-yl}methanone] |
| 31.7 | COc1cncnc1-c1ccc2nc(Nc3cc(C(C)N4CCN(C(=O)C5CC5)CC4)ccn3)[nH]c2c1 (single isomer, unassigned) [Example 35.03.03.B, cyclopropyl{4-[(1S or 1R)-1-(2-{[6-(5-methoxypyrimidin-4-yl)-1H-benzimidazol-2-yl]amino}pyridin-4-yl)ethyl]piperazin-1-yl}methanone] |
| 8.38 | COc1cncnc1-c1ccc2nc(Nc3cc(C(C)N4CCN(C(=O)C5CCC5)CC4)ccn3)[nH]c2c1 (single isomer, unassigned) [Example 35.03.04.A, cyclobutyl{4-[(1R or 1S)-1-(2-{[6-(5-methoxypyrimidin-4-yl)-1H-benzimidazol-2-yl]amino}pyridin-4-yl)ethyl]piperazin-1-yl}methanone] |
| 34.5 | COc1cncnc1-c1ccc2nc(Nc3cc(C(C)N4CCN(C(=O)C5CCC5)CC4)ccn3)[nH]c2c1 (single isomer, unassigned) [Example 35.03.04.B, cyclobutyl{4-[(1R or 1S)-1-(2-{[6-(5-methoxypyrimidin-4-yl)-1H-benzimidazol-2-yl]amino}pyridin-4-yl)ethyl]piperazin-1-yl}methanone] |
